Literature values, collected in paper PMC3530638 (Biochimica et biophysica acta, 2012).

Tested on: B. anthracis
Settings: cited from earlier work

SMILES: CCCC1c2ccccc2C=NN1C(=O)/C=C/c1cc(Cc2cnc(N)nc2N)cc(OC)c1OC (stereo not shown) [n-propyl, (E)-3-[5-(2,4-diaminopyrimidin-5-ylmethyl)-2,3-dimethoxyphenyl]-1-(1-propyl-1h-phthalazin-2-yl)propenone]
- MIC: 1 to 3 µg/mL
